Source: US8420307B2, “Sperm cryoprotective media” (The Jackson Laboratory, priority 2006, dated 2013)
Entries after “also recorded” stand apart in the source; their conditions may differ.

Assays:
[1] = tested on: cryopreserved mouse sperm; test: In vitro fertilization with thawed cryopreserved sperm: fertilization rate (#2-cell embryos/# total oocytes); type: cell-based; details: for effect on fertilization rate / fertility of cryopreserved C57BL/6J sperm: MTG 159 μM to 636 μM in CPM, relative to presently-available methods, FIG. 1
Protocol: The epididymides and vas deferentia are extracted from the C57BL/6J male and placed into the cryoprotective media described herein. […] Incisions are made in the tissues, allowing the sperm to swim out into the CPM; this is allowed for at least 5 but for less than 20 min. The residual tissues are then removed from the collection drop. Ten micro liters of the sperm sample are loaded into as many as one hundred 250 μL French straws (IMV; Maple Grove, Minn.). Two hundred and fifty microliter straws, containing a 5.5 cm column of CPM, a 2.5 cm column of air, a 0.6 cm column of sperm sample followed by a column of air, are sealed with an instantaneous heat sealer. The straws are loaded into cassettes and exposed to liquid nitrogen vapor for at least 10 min before being plunged into the liquid nitrogen. This essentially cools the sperm at 37° C./min.
Subsequent to storage in liquid nitrogen, 3 samples from each treatment are thawed in a 37° C. water bath for 30 sec, and then each 10 μL aliquot is placed directly into its own 500 μL in vitro fertilization (IVF) drop of Cooks Mouse Vitro Fert (Cook Australia; Queensland, Australia). After an hour of incubation, 4 cumulus intact oocyte clutches from superovulated C57BL/6J females are added to the in vitro fertilization drops. IVF is carried out using methods known to those of skill in the art, such as by the methods described by Nakagata. (Nakagata, 2000a; Nakagata, 2000b). The sperm and oocytes are incubated together for 4 hrs before the presumptive zygotes are removed from the IVF drop and placed in a culture drop for overnight incubation.
Approximately 18 hours later, the percentage of oocytes developing into 2-cell embryos is determined (#2-cell embryos/# total oocytes). For statistical analysis, percents are arcsine transformed and the averages of at least 3 IVF drops per treatment are evaluated with a T-Test. A difference between treatments is illustrated with an asterisk (p<0.05). For presentation, means and standard errors were converted back into percents. […]
Ten μL aliquots of sperm from a variety of mouse strains as listed in Table 7 are frozen in the CPM with 477 μM monothioglycerol as ROS(CPM). A total of at least 6 sperm samples per treatment within a strain are utilized. These represented at least 3 samples from each of at least 2 sets of 2 males whose sperm are pooled at the time of collection and then split into the two treatments. Subsequent to thawing the samples are placed directly into their own 500 μL in vitro fertilization (IVF) drop of Cooks Mouse Vitro Fert (Cook Australia; Queensland, Australia; (Quinn et al., 1995)). After an hour incubation, 4 cumulus intact oocyte clutches from isogenic strains were added to the incubation medium. Following a 4 hr co-incubation, the presumptive zygotes were washed and cultured overnight. Approximately 18 hours later, the fertilization rate was determined (% 2 cell: #2-cell embryos/# total oocytes, see Table 7). The average percentage was determined. For each line, about 30 2-cell embryos were implanted into receptive females. After approximately 21 days, the number of live born mice was determined, shown as % Live born in Table 7.
To determine if storage of the cryoprotective media at −80° C. altered the activity of the C57BL/6J mouse sperm., in vitro fertilizations (IVF) were preformed as described previously (see Example 1, also see publications by Nakagata, 2000a; Nakagata, 2000b, Sztein et al. 2000; Byers et al. 2006). Briefly the sperm and oocytes, both from C57BL/6J mice, were incubated together for 4 hrs in a benchtop incubator at 37° C. After 4 hrs of co-incubation the presumptive zygotes were washed through two 150 μL drops of IVF media (MVF; Cook's; Spencer, Ind.) and then cultured overnight. Approximately 18 hrs later, the proportion of oocytes fertilized was calculated by dividing the number of two-cell embryos by the sum of two-cells and normally appearing presumptive one-cell oocytes. […]

[2] = tested on: Rat Sperm; test: Rat sperm motility after cryopreservation and thawing; type: cell-based, LEW/SsNHsd rat; details: addition of 477 μM MTG to lactose/egg yolk media
Protocol: The epididymides and vas deferentia were collected from one 33 week old LEW/SsNHsd rat (Harlan, Indianapolis, Ind.). Incisions were made in the tissue and the sperm were allowed to swim out, into 2 mL of a solution containing 8% lactose [w/v] (Sigma Aldrich; St. Louis, Mo.) and 23% egg yolk [v/v] from fresh eggs in distilled water (Invitrogen; Carlsbad, Calif.) for 10 min. The sperm suspension was then split with half being placed into the lactose/egg yolk solution and the other half being suspended in lactose/egg yolk solution containing 954 micromol MTG in 15 mL conical tubes. […] The 15 mL conical tubes containing the sperm samples were placed into a beaker containing ˜150 mL of 15° C. water for 10 min. […]
The sperm were loaded into 250 μL French straws (IMV; Maple Grove, Minn.; cat# AAA201), which were then sealed with an instantaneous heat sealer (model AIE-305HD; American International Electric; Whittier, Calif.) and 5 of them loaded into cassettes (Zanders Medical Supplies; Vero Beach, Fla.). […] The sperm were diluted 1:50 in Cooks Mouse Vitro Fert (Cook's; Spencer, Ind.) and motility was evaluated by counting at least 5 different fields using a video monitor connected to a microscope using a magnification of 40×. […]

[3] = C57BL/6 sperm cryopreserved in CPM containing 1 mM free radical scavenger
[4] = C57BL/6 sperm cryopreserved in CPM containing 5 mM free radical scavenger

Row | SMILES | Fertilization Rate (2-cell embryos of total oocytes) ([1]; C57BL/6 sperm cryopreserved in CPM containing 0.1 mM free radical scavenger) | Fertilization Rate (2-cell embryos of total oocytes) [1, 3] | Fertilization Rate (2-cell embryos of total oocytes) [1, 4] | Fertilization Rate (2-cell embryos of total oocytes) ([1]; C57BL/6 sperm cryopreserved in CPM containing 20 mM free radical scavenger) | Fertilization Rate (2-cell embryos of total oocytes) ([1]; C57BL/6 sperm cryopreserved in CPM containing 0.5 mM free radical scavenger) | Fertilization Rate (2-cell embryos of total oocytes) ([1]; C57BL/6 sperm cryopreserved in CPM containing 50 mM free radical scavenger) | effect on fertilization rates / fertility of cryopreserved C57BL/6J sperm ([1]; GSH 500 μM to 5 mM in CPM, compared to CPM without a reducing agent, FIG. 2) | MTG concentration that provided the best results (fertilization rate) ([1]; C57BL/6J sperm, MTG tested from 159 μM to 636 μM) | Fertilization Rate (2-cell embryos of total oocytes) ([1]; C57BL/6 sperm cryopreserved in CPM containing 0.477 mM free radical scavenger) | effect on fertilization rate / fertility of cryopreserved C57BL/6J sperm [1] | effect on fertilization rate / fertility of cryopreserved C57BL/6J sperm ([1]; listed as monothioglycerol) | rat sperm motility after thawing, effect in words [2]
1 | O[C@H](CS)[C@H](O)CS (racemic) [DTT, dithiothreitol] | 19.2% | 2% | 0.9% | 6.4% | – | – | – | – | – | – | – | –
2 | N[C@@H](CCC(=O)N[C@@H](CS)C(=O)NCC(=O)O)C(=O)O [GSH, reduced glutathione] | – | 49.5% | 39.9% | – | 59.7% | 0.0% | increase the fertilization rates; also recorded: enhances the fertility | – | – | – | – | –
3 | OCC(O)CS (centres unmarked) [MTG, monothioglycerol] | – | – | – | – | – | – | – | 477 µM | 75.2% | improved fertilization rate | enhances the fertility | increased motility
